Measured values reported in publication PMC10838953.

How the values were obtained:
RIPK5 = RIPK5 (Homo sapiens, UniProt Q6XUX3); test: biochemical; conditions: read-out: %Ctrl @ 2000nM
CDKL2 = CDKL2 (Homo sapiens, UniProt Q92772); test: biochemical; conditions: read-out: %Ctrl @ 2000nM
ROCK2 = ROCK2 (Homo sapiens, UniProt O75116); test: biochemical; conditions: read-out: %Ctrl @ 2000nM
RIOK3 = RIOK3 (Homo sapiens, UniProt O14730); test: biochemical; conditions: read-out: %Ctrl @ 2000nM
RET(V804L) = RET(V804L) (Homo sapiens, UniProt P07949, V804L); test: biochemical; conditions: read-out: %Ctrl @ 2000nM
786-O cells = conditions: 48 h
WEE2 = WEE2 (Homo sapiens, UniProt P0C1S8); test: biochemical; conditions: read-out: %Ctrl @ 2000nM
ZAP70 = ZAP70 (Homo sapiens, UniProt P43403); test: biochemical; conditions: read-out: %Ctrl @ 2000nM
PIK4CB = PIK4CB (Homo sapiens, UniProt Q9UBF8); test: biochemical; conditions: read-out: %Ctrl @ 2000nM
Chain of PIK4CB (Q9UBF8 whole entry): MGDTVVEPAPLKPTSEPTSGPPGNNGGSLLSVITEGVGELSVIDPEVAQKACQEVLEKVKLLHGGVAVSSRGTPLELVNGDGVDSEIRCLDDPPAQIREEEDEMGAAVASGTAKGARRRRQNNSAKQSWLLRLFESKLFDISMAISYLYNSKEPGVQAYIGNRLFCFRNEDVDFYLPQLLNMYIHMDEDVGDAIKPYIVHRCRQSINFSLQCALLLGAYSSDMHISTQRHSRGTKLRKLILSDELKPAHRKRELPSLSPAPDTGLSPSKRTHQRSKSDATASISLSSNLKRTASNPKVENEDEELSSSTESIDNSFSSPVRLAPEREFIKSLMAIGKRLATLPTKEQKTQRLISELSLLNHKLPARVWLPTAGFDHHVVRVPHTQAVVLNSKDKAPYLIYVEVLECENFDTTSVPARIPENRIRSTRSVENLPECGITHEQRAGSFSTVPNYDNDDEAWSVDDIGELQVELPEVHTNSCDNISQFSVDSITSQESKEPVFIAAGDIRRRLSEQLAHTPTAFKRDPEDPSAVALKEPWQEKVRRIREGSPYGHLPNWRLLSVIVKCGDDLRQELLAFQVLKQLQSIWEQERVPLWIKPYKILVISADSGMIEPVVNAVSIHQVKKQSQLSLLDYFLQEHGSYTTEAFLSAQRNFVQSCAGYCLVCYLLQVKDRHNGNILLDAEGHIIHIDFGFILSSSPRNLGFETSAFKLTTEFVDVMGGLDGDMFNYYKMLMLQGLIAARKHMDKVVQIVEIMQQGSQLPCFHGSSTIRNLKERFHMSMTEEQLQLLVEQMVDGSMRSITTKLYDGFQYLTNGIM

GRK2 = GRK2 (Homo sapiens, UniProt P25098); test: biochemical; conditions: read-out: %Ctrl @ 2000nM
DYRK2 = DYRK2 (Homo sapiens, UniProt Q92630); test: biochemical; conditions: read-out: %Ctrl @ 2000nM
BUB1 = BUB1 (Homo sapiens, UniProt O43683); test: biochemical; conditions: read-out: %Ctrl @ 2000nM
EPHB3 = EPHB3 (Homo sapiens, UniProt P54753); test: biochemical; conditions: read-out: %Ctrl @ 2000nM
p38-gamma = p38-gamma (Homo sapiens, UniProt P53778); test: biochemical; conditions: read-out: %Ctrl @ 2000nM
PFCDPK1(P.falciparum) = PFCDPK1(P.falciparum) (Plasmodium falciparum, UniProt P62344); test: biochemical; conditions: read-out: %Ctrl @ 2000nM
IRAK1 = IRAK1 (Homo sapiens, UniProt P51617); test: biochemical; conditions: read-out: %Ctrl @ 2000nM
Chain of IRAK1 (P51617 whole entry): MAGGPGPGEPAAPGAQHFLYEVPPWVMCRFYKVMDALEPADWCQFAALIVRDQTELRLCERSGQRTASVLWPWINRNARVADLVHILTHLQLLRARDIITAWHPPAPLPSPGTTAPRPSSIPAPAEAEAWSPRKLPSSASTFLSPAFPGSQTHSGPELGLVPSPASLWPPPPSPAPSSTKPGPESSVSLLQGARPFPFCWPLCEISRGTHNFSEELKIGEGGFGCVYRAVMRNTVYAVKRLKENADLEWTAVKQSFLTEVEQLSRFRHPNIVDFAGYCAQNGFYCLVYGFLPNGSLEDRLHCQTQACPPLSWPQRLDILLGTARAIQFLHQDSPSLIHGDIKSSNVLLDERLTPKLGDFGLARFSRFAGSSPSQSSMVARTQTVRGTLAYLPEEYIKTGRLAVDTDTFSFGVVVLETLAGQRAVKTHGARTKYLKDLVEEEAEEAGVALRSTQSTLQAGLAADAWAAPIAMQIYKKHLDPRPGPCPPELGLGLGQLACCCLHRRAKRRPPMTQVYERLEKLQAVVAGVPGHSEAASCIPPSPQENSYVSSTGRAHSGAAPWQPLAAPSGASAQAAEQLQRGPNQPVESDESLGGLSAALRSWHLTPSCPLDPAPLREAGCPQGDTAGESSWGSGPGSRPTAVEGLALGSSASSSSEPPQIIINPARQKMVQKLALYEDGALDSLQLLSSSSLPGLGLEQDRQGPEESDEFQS

PYK2 = PYK2 (Homo sapiens, UniProt Q14289); test: biochemical; conditions: read-out: %Ctrl @ 2000nM
CAMK2B = CAMK2B (Homo sapiens, UniProt Q13554); test: biochemical; conditions: read-out: %Ctrl @ 2000nM
Chain of CAMK2B (Q13554 whole entry): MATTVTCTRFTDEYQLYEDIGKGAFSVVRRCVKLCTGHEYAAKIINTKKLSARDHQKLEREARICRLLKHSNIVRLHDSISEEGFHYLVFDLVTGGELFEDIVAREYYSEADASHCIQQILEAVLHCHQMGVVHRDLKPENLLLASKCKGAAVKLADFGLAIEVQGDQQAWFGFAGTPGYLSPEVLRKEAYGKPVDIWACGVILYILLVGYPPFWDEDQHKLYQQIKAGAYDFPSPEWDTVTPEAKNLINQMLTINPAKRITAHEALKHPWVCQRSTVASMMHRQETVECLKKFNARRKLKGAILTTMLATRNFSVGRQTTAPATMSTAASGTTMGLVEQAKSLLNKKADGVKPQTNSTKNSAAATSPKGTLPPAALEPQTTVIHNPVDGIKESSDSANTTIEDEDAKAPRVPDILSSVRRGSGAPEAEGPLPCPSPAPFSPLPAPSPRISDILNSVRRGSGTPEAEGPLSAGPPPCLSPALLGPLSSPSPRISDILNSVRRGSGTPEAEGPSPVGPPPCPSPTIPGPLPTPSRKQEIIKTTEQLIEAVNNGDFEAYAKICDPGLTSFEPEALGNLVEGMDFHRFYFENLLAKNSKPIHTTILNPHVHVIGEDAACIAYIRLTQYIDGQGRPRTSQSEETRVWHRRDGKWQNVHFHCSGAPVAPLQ

EPHA1 = EPHA1 (Homo sapiens, UniProt P21709); test: biochemical; conditions: read-out: %Ctrl @ 2000nM
FGFR3(G697C) = FGFR3(G697C) (Homo sapiens, UniProt P22607, G697C); test: biochemical; conditions: read-out: %Ctrl @ 2000nM
MLK3 = MLK3 (Homo sapiens, UniProt Q16584); test: biochemical; conditions: read-out: %Ctrl @ 2000nM
CDKL5 = CDKL5 (Homo sapiens, UniProt O76039); test: biochemical; conditions: read-out: %Ctrl @ 2000nM
SRPK1 = SRPK1 (Homo sapiens, UniProt Q96SB4); test: biochemical; conditions: read-out: %Ctrl @ 2000nM
ERK5 = ERK5 (Homo sapiens, UniProt Q13164); test: biochemical; conditions: read-out: %Ctrl @ 2000nM
WNK3 = WNK3 (Homo sapiens, UniProt Q9BYP7); test: biochemical; conditions: read-out: %Ctrl @ 2000nM
MARK2 = MARK2 (Homo sapiens, UniProt Q7KZI7); test: biochemical; conditions: read-out: %Ctrl @ 2000nM
MLCK = MLCK (Homo sapiens, UniProt Q32MK0); test: biochemical; conditions: read-out: %Ctrl @ 2000nM
[1] = target: TYK2(JH1domain-catalytic) (Homo sapiens, UniProt P29597); test: biochemical; conditions: read-out: %Ctrl @ 2000nM
ALK = ALK (Homo sapiens, UniProt Q9UM73); test: biochemical; conditions: read-out: %Ctrl @ 2000nM
ABL1-phosphorylated = ABL1-phosphorylated (Homo sapiens, UniProt P00519); test: biochemical; conditions: read-out: %Ctrl @ 2000nM
IKK-beta = IKK-beta (Homo sapiens, UniProt O14920); test: biochemical; conditions: read-out: %Ctrl @ 2000nM
MET(M1250T) = MET(M1250T) (Homo sapiens, UniProt P08581, M1250T); test: biochemical; conditions: read-out: %Ctrl @ 2000nM
MST1R = MST1R (Homo sapiens, UniProt Q04912); test: biochemical; conditions: read-out: %Ctrl @ 2000nM
EGFR(E746-A750del) = EGFR(E746-A750del) (Homo sapiens, UniProt P00533, DEL746-750); test: biochemical; conditions: read-out: %Ctrl @ 2000nM
[2] = target: RSK4(Kin.Dom.2-C-terminal) (Homo sapiens, UniProt Q9UK32); test: biochemical; conditions: read-out: %Ctrl @ 2000nM
CDK5 = CDK5 (Homo sapiens, UniProt Q00535); test: biochemical; conditions: read-out: %Ctrl @ 2000nM
DCAMKL1 = DCAMKL1 (Homo sapiens, UniProt O15075); test: biochemical; conditions: read-out: %Ctrl @ 2000nM
Chain of DCAMKL1 (O15075 whole entry): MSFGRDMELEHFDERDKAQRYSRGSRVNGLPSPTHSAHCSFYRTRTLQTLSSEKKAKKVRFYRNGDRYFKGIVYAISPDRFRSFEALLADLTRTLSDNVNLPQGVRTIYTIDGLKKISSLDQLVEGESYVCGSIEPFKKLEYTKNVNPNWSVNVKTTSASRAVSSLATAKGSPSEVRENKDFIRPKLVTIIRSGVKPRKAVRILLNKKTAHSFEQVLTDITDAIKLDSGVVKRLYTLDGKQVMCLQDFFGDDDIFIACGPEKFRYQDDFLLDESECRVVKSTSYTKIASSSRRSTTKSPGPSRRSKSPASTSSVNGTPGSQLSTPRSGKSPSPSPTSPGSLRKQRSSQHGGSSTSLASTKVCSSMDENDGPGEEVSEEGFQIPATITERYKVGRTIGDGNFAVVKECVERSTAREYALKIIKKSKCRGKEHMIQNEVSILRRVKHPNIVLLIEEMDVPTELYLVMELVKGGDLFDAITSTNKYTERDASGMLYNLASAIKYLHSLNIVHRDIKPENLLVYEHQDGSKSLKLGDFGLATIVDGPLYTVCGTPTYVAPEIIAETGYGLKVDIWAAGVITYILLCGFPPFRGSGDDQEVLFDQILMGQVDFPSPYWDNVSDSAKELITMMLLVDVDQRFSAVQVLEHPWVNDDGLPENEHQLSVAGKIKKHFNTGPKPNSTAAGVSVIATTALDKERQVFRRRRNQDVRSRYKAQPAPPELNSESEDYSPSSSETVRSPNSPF

CDK7 = CDK7 (Homo sapiens, UniProt P50613); test: biochemical; conditions: read-out: %Ctrl @ 2000nM
Chain of CDK7 (P50613 whole entry): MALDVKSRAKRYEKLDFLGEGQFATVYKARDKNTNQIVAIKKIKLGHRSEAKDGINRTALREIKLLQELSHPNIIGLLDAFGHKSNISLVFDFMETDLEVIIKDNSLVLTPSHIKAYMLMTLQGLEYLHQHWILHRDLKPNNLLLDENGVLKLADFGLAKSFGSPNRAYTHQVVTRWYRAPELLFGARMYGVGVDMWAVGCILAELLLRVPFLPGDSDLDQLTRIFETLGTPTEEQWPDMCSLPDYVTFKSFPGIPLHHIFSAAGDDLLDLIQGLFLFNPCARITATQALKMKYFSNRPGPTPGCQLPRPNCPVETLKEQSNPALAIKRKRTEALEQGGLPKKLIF

MYO3B = MYO3B (Homo sapiens, UniProt Q8WXR4); test: biochemical; conditions: read-out: %Ctrl @ 2000nM
PRKCQ = PRKCQ (Homo sapiens, UniProt Q04759); test: biochemical; conditions: read-out: %Ctrl @ 2000nM
MAK = MAK (Homo sapiens, UniProt P20794); test: biochemical; conditions: read-out: %Ctrl @ 2000nM
PIK3CA(Q546K) = PIK3CA(Q546K) (Homo sapiens, UniProt P42336, Q546K); test: biochemical; conditions: read-out: %Ctrl @ 2000nM
Chain of PIK3CA(Q546K) (P42336 whole entry Q546K): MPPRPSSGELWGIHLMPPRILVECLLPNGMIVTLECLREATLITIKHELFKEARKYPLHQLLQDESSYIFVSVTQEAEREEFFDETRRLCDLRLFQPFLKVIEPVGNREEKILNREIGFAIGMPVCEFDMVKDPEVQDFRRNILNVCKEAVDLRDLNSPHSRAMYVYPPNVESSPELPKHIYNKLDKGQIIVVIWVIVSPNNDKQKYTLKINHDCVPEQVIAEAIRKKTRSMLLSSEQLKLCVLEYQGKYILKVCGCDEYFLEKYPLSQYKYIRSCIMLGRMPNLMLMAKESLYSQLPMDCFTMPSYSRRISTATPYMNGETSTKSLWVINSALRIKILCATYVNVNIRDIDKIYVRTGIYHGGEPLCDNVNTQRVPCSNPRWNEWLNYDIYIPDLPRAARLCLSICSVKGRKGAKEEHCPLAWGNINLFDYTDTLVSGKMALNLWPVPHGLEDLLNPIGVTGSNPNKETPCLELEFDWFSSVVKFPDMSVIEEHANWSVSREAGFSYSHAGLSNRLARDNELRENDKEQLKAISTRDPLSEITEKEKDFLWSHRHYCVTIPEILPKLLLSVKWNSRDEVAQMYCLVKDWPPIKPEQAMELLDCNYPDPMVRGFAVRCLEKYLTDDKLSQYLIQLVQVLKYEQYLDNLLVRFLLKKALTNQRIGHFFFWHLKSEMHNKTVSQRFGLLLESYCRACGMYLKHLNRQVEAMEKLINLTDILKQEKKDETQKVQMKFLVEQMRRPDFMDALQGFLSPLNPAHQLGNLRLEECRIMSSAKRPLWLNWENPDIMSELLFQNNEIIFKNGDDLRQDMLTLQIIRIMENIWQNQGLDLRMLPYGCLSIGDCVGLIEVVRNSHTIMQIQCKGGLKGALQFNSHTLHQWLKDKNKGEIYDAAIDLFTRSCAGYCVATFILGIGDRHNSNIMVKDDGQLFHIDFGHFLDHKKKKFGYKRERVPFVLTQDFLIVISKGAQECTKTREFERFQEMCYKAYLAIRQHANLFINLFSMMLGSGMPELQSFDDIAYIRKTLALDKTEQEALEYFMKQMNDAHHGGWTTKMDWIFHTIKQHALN

Chain of CDKL2 (Q92772 whole entry): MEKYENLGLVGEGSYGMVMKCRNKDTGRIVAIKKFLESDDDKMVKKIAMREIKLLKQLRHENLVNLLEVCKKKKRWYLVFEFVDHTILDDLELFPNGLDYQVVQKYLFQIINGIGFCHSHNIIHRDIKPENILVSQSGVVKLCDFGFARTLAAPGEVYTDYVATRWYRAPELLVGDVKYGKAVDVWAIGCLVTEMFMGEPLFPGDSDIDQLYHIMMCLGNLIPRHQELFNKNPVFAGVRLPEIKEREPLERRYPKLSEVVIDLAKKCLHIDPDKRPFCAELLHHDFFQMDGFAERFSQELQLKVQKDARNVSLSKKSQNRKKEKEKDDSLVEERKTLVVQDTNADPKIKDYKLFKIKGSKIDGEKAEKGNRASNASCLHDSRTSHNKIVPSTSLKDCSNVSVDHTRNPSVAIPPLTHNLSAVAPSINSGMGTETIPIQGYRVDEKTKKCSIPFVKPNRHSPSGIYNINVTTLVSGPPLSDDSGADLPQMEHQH

Compound `CC(C)COC(=O)c1[nH]c2ccc(F)cc2c1-c1cn(CC2CCN(CCNS(=O)(=O)c3ccc(CC(C)C)cc3)CC2)nn1` [AB668, isobutyl 5-fluoro-3-(1-((1-(2-((4-isobutylphenyl)sulfonamido)ethyl)piperidin-4-yl)methyl)-1H-1,2,3-triazol-4-yl)-1H-indole-2-carboxylate] has a remaining activity at 2 µM (RIPK5) of 95%, a remaining activity at 2 µM (CDKL2) of 84% and a remaining activity at 2 µM (ROCK2) of 83%. The remaining activity at 2 µM (RIOK3) was 97%, the remaining activity at 2 µM (RET(V804L)) was 93% and the “proliferation, cell death and apoptosis” value (786-O cells; 4 μM) was “induced significant cell proliferation arrest associated with cell death and apoptosis”. For the same compound, the “renal cancer cell death, dose dependent” value (786-O cells; low concentration (<5μM)) was “more efficient than CX-4945 and SGC-CK2-1”, the remaining activity at 2 µM (WEE2) was 95% and the remaining activity at 2 µM (ZAP70) was 76%. For the same compound, the remaining activity at 2 µM (PIK4CB) was 75%, the remaining activity at 2 µM (GRK2) was 100% and the remaining activity at 2 µM (DYRK2) was 76%. The remaining activity at 2 µM (BUB1) was 94%, the remaining activity at 2 µM (EPHB3) was 80% and the remaining activity at 2 µM (p38-gamma) was 74%. It also gave a remaining activity at 2 µM (PFCDPK1(P.falciparum)) of 81%, a remaining activity at 2 µM (IRAK1) of 98% and a remaining activity at 2 µM (PYK2) of 95%. For the same compound, the remaining activity at 2 µM (CAMK2B) was 96%, the remaining activity at 2 µM (EPHA1) was 99% and the remaining activity at 2 µM (FGFR3(G697C)) was 100%. The remaining activity at 2 µM (MLK3) was 99%, the remaining activity at 2 µM (CDKL5) was 91% and the remaining activity at 2 µM (SRPK1) was 88%. For the same compound, the remaining activity at 2 µM (ERK5) was 88%, the remaining activity at 2 µM (WNK3) was 98% and the remaining activity at 2 µM (MARK2) was 81%. For the same compound, the remaining activity at 2 µM (MLCK) was 100%, the remaining activity at 2 µM [1] was 85% and the remaining activity at 2 µM (ALK) was 91%. For the same compound, the remaining activity at 2 µM (ABL1-phosphorylated) was 82%, the remaining activity at 2 µM (IKK-beta) was 91% and the remaining activity at 2 µM (MET(M1250T)) was 90%. The remaining activity at 2 µM (MST1R) was 97%, the remaining activity at 2 µM (EGFR(E746-A750del)) was 88% and the remaining activity at 2 µM [2] was 94%. For the same compound, the remaining activity at 2 µM (CDK5) was 99%, the remaining activity at 2 µM (DCAMKL1) was 71% and the remaining activity at 2 µM (CDK7) was 98%. It also gave a remaining activity at 2 µM (MYO3B) of 100%, a remaining activity at 2 µM (PRKCQ) of 87% and a remaining activity at 2 µM (MAK) of 96%. It also gave a remaining activity at 2 µM (PIK3CA(Q546K)) of 100%.
